For test [1], the system named is Brassica napus microspore cotyledonary embryos. In words: Germination capacity of embryos produced in treated microspore cultures. The format is cell-based. Conditions: cotyledonary embryos from 30-40 days cultures, desiccated and cultured under germination conditions. How it is done: To evaluate the quality of embryos produced in microspore embryogenesis cultures in the presence of the inhibitors, embryo germination assays were performed. Brassica napus microspore cotyledonary embryos originated from control and treated-cultures were used for in vitro embryo germination and conversion to plantlets as previously described (Prem et al., 2012 BMC Plant Biology 12, 127). The 34-40 old dicotyledonous embryos, after air desiccation on sterile filter paper were germinated in MS (Murashige and Skoog) medium containing sucrose 2% (w/v) and gelled with 7 g/L bacteriological agar (w/v). Microspore derived-embryos were incubated for 15-20 days at 18° C. in darkness conditions till activation of radicle and plumule, and quantified in terms of percentage of embryos showing normal growth, similar to zygotic embryo germination.

Test [2] deals with Arabidopsis mesophyll protoplasts. In words: Microcallus formation (proliferation efficiency) in immobilized mesophyll protoplasts. The test is classed as cell-based, Arabidopsis thaliana. Conditions: 48 h pulse treatment. The procedure: Seeds of an Arabidopsis thaliana line overexpressing histone 2B fused with yellow fluorescent protein (H2B-YFP) were surface-sterilized and sown on MS agar. After 24 h stratification, plates were cultured vertically for 7 days under long day conditions (16 h light-8 h dark) at 22° C. Prior to seedling harvest, plates were kept vertically in the dark at 4° C. for 24 h. Protoplasts were isolated from hypocotyl and cotyledons including primary leaves according to Dovzhenko et al., Protoplasma, 222(1-2):107-11 (2003).
Protoplast density was determined by cell counting in a Fuchs-Rosenthal chamber. For immobilization, protoplasts were mixed with equal volumes of 1.2% (w/v) low melting agarose in protoplast buffer, prewarmed at 40° C. and immediately pipetted into a 96-well plate (Ibidi, Germany), prewarmed at 34° C. with 125 μL per well. The plate was immediately centrifuged (2 min, 30 g) and incubated at 4° C. for 5 min, 200 μL of cultivation medium was added on top of each well and the protoplasts were cultivated at 22° C. in the dark. Cultivation medium was composed of macro and micro elements based on Kao K N and Michayluk M R. Planta., 126(2):105-10 (1975), supplemented with 2 μM of 2,4-D and 1 μM of thidiazurone. For PDE inhibitors treatments, PDE inhibitors were dissolved in DMSO and added to the medium with the concentration given (liquid media). […]
An automated microscope (MORE1, Till I.D. GmbH, Munich, Germany) was used for the analysis of protoplast development and for the detection of YFP fluorescence. Transillumination was recorded with 10×0.45 and 20×0.8 objectives (Zeiss); epifluorescence was recorded after excitation with single-mode diode lasers (iBeam smart, Toptica) with excitation of 550 nm (YFP)/green emission filter. […]
Images were recorded immediately after immobilization and 10 days after immobilization (DAIs). […] Quantification of proliferating cells was performed by exploiting shape differences of dividing or closely adjacent nuclei after the application of EDM binary operations on epifluorescence images in comparison with circular fluorescence signals from non-dividing mononucleic cells (Brocher Int. J. Image Process, 8, 30-48 (2014)). Corresponding cellular shape parameters from proliferating microcalli were determined from selecting segmented transillumination images after filtering with processed epiflourescence images using the BioVoxxel binary feature extraction function.
PDE inhibitors were tested for their capability to increase the proliferation rate of Arabidopsis protoplasts isolated from leaves. […] Microscopic images were recorded 10 days after immobilization and proliferating microcalli were identified by the presence of multiple fluorescing nuclei visualized by exploiting the nuclear-encoded H2B-YFP marker (see FIG. 3). […]

Take `COc1ccc(-c2nc(-c3ccccc3Br)[nH]c2-c2ccc(OC)cc2)cc1` [AGF4.17, 2-(2-Bromophenyl)-4,5-bis(4-methoxyphenyl)-1H-imidazole]: in test [1], the “germination capacity / quality of embryos” value was “well-developed roots and hypocotyls in most embryos”. Besides, the “induction of microcallus formation compared with the untreated control” value in test [2] (10 μM) amounted to 250%.

`O=C(Nc1c(Cl)cncc1Cl)c1ccc(OC(F)F)c(OCC2CC2)c1` [FDA4.21, 3-(cyclopropylmethoxy)-N-(3,5-dichloropyridin-4-yl)-4-(difluoromethoxy) benzamide, reference compound]: the “germination capacity / quality of embryos” value in test [1] was “well-developed roots and hypocotyls in most embryos”.

Take `COc1ccc(C2CNC(=O)C2)cc1OC1CCCC1` (stereo not drawn) [FDA4.22, 4-(3-cyclopentyloxy-4-methoxyphenyl)pyrrolidin-2-one, reference compound]: in test [1], the “germination capacity / quality of embryos” value was “well-developed roots and hypocotyls in most embryos”.

On to `Cc1oc(-c2ccccc2F)nc1CN1CCC[C@@H](C(=O)NCc2cccc(Cl)c2)C1` [JHD1.48, (R)—N-(3-chlorobenzyl)-1-((2-(2-fluorophenyl)-5-methyloxazol-4-yl)methyl) piperidin-3-carboxamide], for which, in test [1], the “germination capacity / quality of embryos” value is “well-developed roots and hypocotyls in most embryos”. Moreover, the “microcalli formation rate increased by, relative to the untreated control” value in test [2] (10 μM) came to 50%.

`CSc1nc2ccccc2c(=O)n1-c1c(F)cccc1F` [TC2.43, 3-(2,6-Difluorophenyl)-2-methylthio-4-oxo-3,4-dihydroquinazoline]: the “germination capacity / quality of embryos” value in test [1] was “well-developed roots and hypocotyls in most embryos”. Further, in test [2] (1 μM), the “increased rate of microcalli formation relative to the untreated control” value is given as 140%. Besides, in test [2] (10 μM), the “microcalli formation rate increased by, relative to the untreated control” value is 200%.

These data come from US20250057097A1, “PHOSPHODIESTERASES INHIBITORS TO PROMOTE IN VITRO PLANT CELL REPROGRAMMING TOWARDS PLANT EMBRYOGENESIS OR MICROCALLUS FORMATION” (CONSEJO SUPERIOR DE INVESTIGACIONES CIENTÍFICAS (CSIC), priority 2021, published 2025).
